Results taken from patent publication US5451599A, “Complex salts of hematoporphyrin and of its derivatives, their synthesis, and therapeutic agent” (Wojskowa Akademia Techniczna im. Jaroslawa Dabrowskiego, priority 1991, dated 1995).

What was measured:
[1] = test system: KB (oral cavity cancer cells); experiment: 48 h incubation with the salts: cell fluorescence, living cells, multiplication coefficient (Table 2); format: cell-based, Human; conditions: 48 hs, 50 mcg/ml
Description: (§1) New compounds of formula 1 were tested on cell lines. Use was made of 9 different neoplastic cell lines which were incubated for 48 hs with various new salts of protoporphyrin and with a new salt of the conventionally applied HpD preparation/hematoporphyrin derivatives/obtained according to Lipson et al. All compounds were used in the form of aqueous solutions, at a concentration of 50 mcg/ml. Determination was made of:
(§2) 1/ Cell fluorescence /F/: after 48 hs incubation, the cells were washed away, the intensity of fluorescence was measured in a fluorescence microscope and was expressed on an arbitrary scale of 0-4 scores;
(§3) 2/ Percentage of living cells /P %/ after 48 hs incubation;
(§4) 3/ Cell multiplication coefficient /M/ in the presence of different preparations, expressed as: [formula]
KB oral cavity cancer cells

[2] = test system: MA-104 (Rhesus monkey embryo kidney cancer cells); experiment: 48 h incubation with the salts: cell fluorescence, living cells, multiplication coefficient (Table 1); format: cell-based; conditions: 48 hs, 50 mcg/ml
Description: as §1, §2, §3, §4

PZ = experiment: as above; format: cell-based; conditions: 48 hs, 50 mcg/ml
Description: as §1, §2, §3, §4

CL = experiment: as above; format: cell-based; conditions: 48 hs, 50 mcg/ml
Description: as §1, §2, §3, §4

[3] = test system: HEp-2 (larynx cancer cells); experiment: 48 h incubation with the salts: cell fluorescence, living cells, multiplication coefficient (Table 3); format: cell-based, Human; conditions: 48 hs, 50 mcg/ml
Description: as §1, §2, §3, §4
Hep-2 larynx cancer cells

[4] = test system: Mm (Mm5MT/C1, mammary gland cancer cells of C3H-strain mice); experiment: as above; format: cell-based, Murine; conditions: for Cell fluorescence /F/ / Cell multiplication coefficient /M/ / Percentage of living cells /P %/: Mm, 48 hs, 50 mcg/ml
Description: as §1, §2, §3, §4
mammary gland cancer cells of C3H-strain mice

[5] = test system: T-47D (breast cancer cells); experiment: as above; format: cell-based, Human; conditions: 48 hs, 50 mcg/ml
Description: as §1, §2, §3, §4
T-47D breast cancer cells

[6] = test system: Hela (cervix uteri cancer cells); experiment: 48 h incubation with the salts: cell fluorescence, living cells, multiplication coefficient (Table 1); format: cell-based, Human; conditions: 48 hs, 50 mcg/ml
Description: as §1, §2, §3, §4

[7] = test system: GR (GRMT/F6, mammary gland cancer cells of GR-strain mice); experiment: 48 h incubation with the salts: cell fluorescence, living cells, multiplication coefficient (Table 2); format: cell-based, Murine; conditions: 48 hs, 50 mcg/ml
Description: as §1, §2, §3, §4
GRMT/F6 mammary gland cancer cells of GR-strain mice

[8] = test system: HBT-39/w (breast cancer cells); experiment: as above; format: cell-based, Human; conditions: 48 hs, 50 mcg/ml
Description: as §1, §2, §3, §4

| Compound | Cell fluorescence /F/ [1] | Cell multiplication coefficient /M/ [1] | Percentage of living cells /P %/ [1] [%] | Cell fluorescence /F/ [2] | Cell multiplication coefficient /M/ [2] | Percentage of living cells /P %/ [2] [%] | Cell fluorescence /F/ (PZ) | Cell multiplication coefficient /M/ (PZ) | Percentage of living cells /P %/ (PZ) [%] | Cell fluorescence /F/ (CL) | Cell multiplication coefficient /M/ (CL) | Percentage of living cells /P %/ (CL) [%] | Cell fluorescence /F/ [3] | Cell multiplication coefficient /M/ [3] | Percentage of living cells /P %/ [3] [%] | Cell fluorescence /F/ [4] | Cell multiplication coefficient /M/ [4] | Percentage of living cells /P %/ [4] [%] | Cell fluorescence /F/ [5] | Cell multiplication coefficient /M/ [5] | also measured |
| --- | --- | --- | --- | --- | --- | --- | --- | --- | --- | --- | --- | --- | --- | --- | --- | --- | --- | --- | --- | --- | --- |
| CC1=C(CCC(=O)O)c2cc3[nH]c(cc4nc(cc5[nH]c(cc1n2)c(C(C)NC(CS)C(=O)O)c5C)C(C(C)NC(CS)C(=O)O)=C4C)c(C)c3CCC(=O)O.N=C(N)NCCC[C@H](N)C(=O)O.N=C(N)NCCC[C@H](N)C(=O)O (stereo not drawn) [PP/Cys/2 /Arg/2, l-arginine di/N-cysteyl/-protoporphyrinate] | + | 0,12 | 12 | ++ | 0,16 | 11 | + | 0,40 | 40 | - | 0,30 | 30 | ++++ | 0,32 | 60 | +++ | 0,73 | 40 | + | 0,84 | Percentage of living cells /P %/ [5]: 26%; Cell fluorescence /F/ [6]: ++; Cell multiplication coefficient /M/ [6]: 0,43; Percentage of living cells /P %/ [6]: 55%; Cell fluorescence /F/ [7]: +++; Cell multiplication coefficient /M/ [7]: 0,75; Percentage of living cells /P %/ [7]: 50%; Cell fluorescence /F/ [8]: +; Cell multiplication coefficient /M/ [8]: 0,53; Percentage of living cells /P %/ [8]: 42% |
| CC1=C(CCC(=O)O)c2cc3[nH]c(cc4nc(cc5[nH]c(cc1n2)c(C(C)NC(Cc1ccccc1)C(=O)O)c5C)C(C(C)NC(Cc1ccccc1)C(=O)O)=C4C)c(C)c3CCC(=O)O.N=C(N)NCCC[C@H](N)C(=O)O.N=C(N)NCCC[C@H](N)C(=O)O (stereo not drawn) [PP/Fen/2 /Arg/2, l-arginine di/N-phenylalanyl/protoporphyrinate] | ++ | 0,12 | 12 | ++ | 0,35 | 35 | + | 0,08 | 8 | ++ | 0 | 0 | ++ | 0,08 | 3 | ++++ | 0,37 | 12 | + | 0,60 | Percentage of living cells /P %/ [5]: 60%; Cell fluorescence /F/ [6]: +++; Cell multiplication coefficient /M/ [6]: 0,14; Percentage of living cells /P %/ [6]: 5%; Cell fluorescence /F/ [7]: +++; Cell multiplication coefficient /M/ [7]: 0; Percentage of living cells /P %/ [7]: 0%; Cell fluorescence /F/ [8]: ++++; Cell multiplication coefficient /M/ [8]: 0,11; Percentage of living cells /P %/ [8]: 11% |
| CC1=C(CCC(=O)O)c2cc3[nH]c(cc4nc(cc5[nH]c(cc1n2)c(C(C)NC(CCC(=O)O)C(=O)O)c5C)C(C(C)NC(CCC(=O)O)C(=O)O)=C4C)c(C)c3CCC(=O)O.N=C(N)NCCC[C@H](N)C(=O)O.N=C(N)NCCC[C@H](N)C(=O)O (stereo not drawn) [PP/Glu/2 /Arg/2, l-arginine di/N-glutamyl/-protoporphyrinate] | ++++ | 0,08 | 8 | - | 0,16 | 15 | + | 0,15 | 15 | - | 0,45 | 45 | ++++ | 0,08 | 15 | +++ | 0,70 | 76 | +++ | 0,80 | activity in studies of the Mm5MT/C1 cell line (in words) ([4]; mammary gland cancer of C3H mice): least effective against this type of neoplasm; Percentage of living cells /P %/ [5]: 49%; Cell fluorescence /F/ [6]: ++; Cell multiplication coefficient /M/ [6]: 0,16; Percentage of living cells /P %/ [6]: 33%; Cell fluorescence /F/ [7]: +; Cell multiplication coefficient /M/ [7]: 0,75; Percentage of living cells /P %/ [7]: 75%; Cell fluorescence /F/ [8]: +; Cell multiplication coefficient /M/ [8]: 0,73; Percentage of living cells /P %/ [8]: 66% |
| CSCCC(NC(C)C1=C(C)c2cc3[nH]c(cc4nc(cc5[nH]c(cc1n2)c(C)c5C(C)NC(CCSC)C(=O)O)C(C)=C4CCC(=O)O)c(CCC(=O)O)c3C)C(=O)O.N=C(N)NCCC[C@H](N)C(=O)O.N=C(N)NCCC[C@H](N)C(=O)O (stereo not drawn) [PP/Met/2 /Arg/2, l-arginine di/N-methionyl/-protoporphyrinate] | ++ | 0,12 | 5 | ++ | 0,33 | 22 | + | 0,08 | 8 | + | 0 | 0 | +++ | 0 | 0 | ++++ | 0,08 | 8 | +++ | 0,10 | Percentage of living cells /P %/ [5]: 10%; Cell fluorescence /F/ [6]: ++++; Cell multiplication coefficient /M/ [6]: 0,05; Percentage of living cells /P %/ [6]: 5%; Cell fluorescence /F/ [7]: ++++; Cell multiplication coefficient /M/ [7]: 0,22; Percentage of living cells /P %/ [7]: 25%; Cell fluorescence /F/ [8]: ++++; Cell multiplication coefficient /M/ [8]: 0,08; Percentage of living cells /P %/ [8]: 8% |
